{"source": "paper PMC2783803", "about": "(Journal of medicinal chemistry, 2009)", "key": {"[1]": {"test_system": "mouse sweet receptor (mT1R2+mT1R3)", "test": "Heterologous calcium mobilization assay, mouse sweet receptor", "type": "cell-based", "details": "activated by 2.5mM sucralose; inhibitor at ~5-times IC50"}, "[2]": {"test_system": "sweet and umami (MSG) taste", "test": "Psychophysical self-experimentation, taste inhibition in vivo", "parameters": "species or system human", "details": "self-experimentation by one author; data not shown"}, "PPAR-alpha": {"test_system": "PPAR-alpha", "details": "read-out: EC50 for activating PPAR-alpha; cited from earlier work"}, "human T1R2+T1R3 receptor": {"target": "T1, human T1R2+T1R3 receptor (Homo sapiens, UniProt Q7RTX0)", "T1 sequence (Q7RTX0 21-852)": "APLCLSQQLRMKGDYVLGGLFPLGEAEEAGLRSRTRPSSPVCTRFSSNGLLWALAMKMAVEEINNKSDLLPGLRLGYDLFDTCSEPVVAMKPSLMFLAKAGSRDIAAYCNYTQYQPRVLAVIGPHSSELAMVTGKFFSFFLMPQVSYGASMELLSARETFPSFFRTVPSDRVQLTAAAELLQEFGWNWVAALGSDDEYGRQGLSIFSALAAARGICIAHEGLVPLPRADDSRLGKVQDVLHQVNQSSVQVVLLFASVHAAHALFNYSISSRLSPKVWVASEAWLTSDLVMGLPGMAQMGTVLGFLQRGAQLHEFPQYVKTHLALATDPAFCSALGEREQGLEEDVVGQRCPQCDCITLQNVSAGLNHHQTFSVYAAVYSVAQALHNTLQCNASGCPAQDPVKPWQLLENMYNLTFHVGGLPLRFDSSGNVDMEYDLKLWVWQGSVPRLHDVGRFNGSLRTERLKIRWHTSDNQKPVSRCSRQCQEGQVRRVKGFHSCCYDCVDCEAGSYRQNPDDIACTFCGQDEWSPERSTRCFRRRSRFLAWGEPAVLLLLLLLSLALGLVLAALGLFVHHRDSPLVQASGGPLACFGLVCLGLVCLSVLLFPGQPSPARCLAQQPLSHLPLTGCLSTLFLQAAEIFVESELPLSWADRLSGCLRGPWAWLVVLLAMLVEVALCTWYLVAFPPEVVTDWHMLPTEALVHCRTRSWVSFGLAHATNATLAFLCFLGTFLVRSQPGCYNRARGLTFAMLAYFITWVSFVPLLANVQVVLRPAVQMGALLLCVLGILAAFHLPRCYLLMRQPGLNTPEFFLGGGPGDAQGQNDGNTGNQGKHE", "T1 sequence (Q8TE23 20-839 partner)": "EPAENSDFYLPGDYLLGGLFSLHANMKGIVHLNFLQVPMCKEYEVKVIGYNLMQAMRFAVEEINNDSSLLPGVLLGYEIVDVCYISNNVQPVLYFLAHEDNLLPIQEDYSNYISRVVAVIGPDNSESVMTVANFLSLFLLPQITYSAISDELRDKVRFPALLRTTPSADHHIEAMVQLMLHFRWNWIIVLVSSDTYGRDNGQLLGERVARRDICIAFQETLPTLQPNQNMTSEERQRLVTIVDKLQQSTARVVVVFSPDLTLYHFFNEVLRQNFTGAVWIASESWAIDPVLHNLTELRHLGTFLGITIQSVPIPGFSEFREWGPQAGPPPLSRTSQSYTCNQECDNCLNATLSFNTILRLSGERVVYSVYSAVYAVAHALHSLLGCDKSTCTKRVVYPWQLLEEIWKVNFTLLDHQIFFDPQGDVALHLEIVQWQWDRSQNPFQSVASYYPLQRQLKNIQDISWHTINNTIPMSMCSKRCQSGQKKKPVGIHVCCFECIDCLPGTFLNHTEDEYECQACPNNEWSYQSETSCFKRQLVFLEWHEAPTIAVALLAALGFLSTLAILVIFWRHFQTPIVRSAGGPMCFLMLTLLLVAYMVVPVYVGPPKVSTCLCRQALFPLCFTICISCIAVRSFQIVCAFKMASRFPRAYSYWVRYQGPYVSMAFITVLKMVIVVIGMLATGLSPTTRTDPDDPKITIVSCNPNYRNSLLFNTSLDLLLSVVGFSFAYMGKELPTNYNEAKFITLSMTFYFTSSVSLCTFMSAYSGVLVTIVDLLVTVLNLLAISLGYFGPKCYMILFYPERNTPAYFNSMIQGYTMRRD", "test": "Heterologous calcium mobilization assay, human sweet receptor in HEK293 cells", "type": "cell-based"}}, "data": [{"smiles": "COc1ccc(OC(C)C(=O)O)cc1", "note": "(centres unmarked) [Lactisole, 2-(4-methoxyphenoxy) propanoic acid]", "values": [{"measurement": "effect on the mouse sweet receptor", "setting": "[1]", "value": "no effect"}]}, {"smiles": "CC(C)(Oc1ccc(Cl)cc1)C(=O)O", "note": "[Clofibric acid, 2-(4-chlorophenoxy)-2-methylpropanoic acid]", "values": [{"measurement": "inhibition of sweet taste in vivo", "setting": "[2]", "value": "potently inhibited"}, {"measurement": "inhibition of umami (MSG) taste in vivo", "setting": "[2]", "value": "potently inhibited"}, {"measurement": "EC50", "setting": "PPAR-alpha", "value": "50 to 55", "unit": "µM"}]}, {"smiles": "O=C(O)COc1ccc(Cl)cc1Cl", "note": "[2,4D, (2,4-dichlorophenoxy)acetic acid]", "values": [{"measurement": "IC50", "setting": "human T1R2+T1R3 receptor", "value": 70, "unit": "µM"}]}]}
